Test results as given in PMC9365363 (Clinical Cancer Research, 2022).
Read-outs that look alike come from different tables or passages of the source.

What was measured:
GBM cell lines = test: cells; assay type: cell-based; settings: Homo sapiens, 72 h
[1] = tested on: tyrosine phosphoproteome of GBM tumors; assay type: in vivo, human; settings: 4 sunitinib-treated versus 7 control GBM tumors, cut-off P < 0.05
PDGFRA = PDGFRA (Homo sapiens, UniProt P16234); assay type: in vivo; settings: known sunitinib target; 4 sunitinib-treated, 7 control tumors
PDGFRB = PDGFRB (Homo sapiens, UniProt P09619); assay type: in vivo; settings: known sunitinib target; 4 sunitinib-treated, 7 control tumors
PTM signatures = tested on: PTM signatures; design: species or system human; settings: in vivo
[2] = assay type: in vivo, human; settings: all patients, last dose in the morning on the day of surgery
[3] = 5 patients with GBM
398 cancer cell lines = settings: read-out: Geometric mean of the IC50, ref https://www.cancerrxgene.org/compound/Sunitinib/5/overview/ic50; cited from earlier work
recurrent GBM = settings: sunitinib-treated patients with a recurrent GBM; cited from earlier work
clinical = settings: human, in vivo, po, 50 mg once daily

Sequence of PDGFRA (P16234 24-1089): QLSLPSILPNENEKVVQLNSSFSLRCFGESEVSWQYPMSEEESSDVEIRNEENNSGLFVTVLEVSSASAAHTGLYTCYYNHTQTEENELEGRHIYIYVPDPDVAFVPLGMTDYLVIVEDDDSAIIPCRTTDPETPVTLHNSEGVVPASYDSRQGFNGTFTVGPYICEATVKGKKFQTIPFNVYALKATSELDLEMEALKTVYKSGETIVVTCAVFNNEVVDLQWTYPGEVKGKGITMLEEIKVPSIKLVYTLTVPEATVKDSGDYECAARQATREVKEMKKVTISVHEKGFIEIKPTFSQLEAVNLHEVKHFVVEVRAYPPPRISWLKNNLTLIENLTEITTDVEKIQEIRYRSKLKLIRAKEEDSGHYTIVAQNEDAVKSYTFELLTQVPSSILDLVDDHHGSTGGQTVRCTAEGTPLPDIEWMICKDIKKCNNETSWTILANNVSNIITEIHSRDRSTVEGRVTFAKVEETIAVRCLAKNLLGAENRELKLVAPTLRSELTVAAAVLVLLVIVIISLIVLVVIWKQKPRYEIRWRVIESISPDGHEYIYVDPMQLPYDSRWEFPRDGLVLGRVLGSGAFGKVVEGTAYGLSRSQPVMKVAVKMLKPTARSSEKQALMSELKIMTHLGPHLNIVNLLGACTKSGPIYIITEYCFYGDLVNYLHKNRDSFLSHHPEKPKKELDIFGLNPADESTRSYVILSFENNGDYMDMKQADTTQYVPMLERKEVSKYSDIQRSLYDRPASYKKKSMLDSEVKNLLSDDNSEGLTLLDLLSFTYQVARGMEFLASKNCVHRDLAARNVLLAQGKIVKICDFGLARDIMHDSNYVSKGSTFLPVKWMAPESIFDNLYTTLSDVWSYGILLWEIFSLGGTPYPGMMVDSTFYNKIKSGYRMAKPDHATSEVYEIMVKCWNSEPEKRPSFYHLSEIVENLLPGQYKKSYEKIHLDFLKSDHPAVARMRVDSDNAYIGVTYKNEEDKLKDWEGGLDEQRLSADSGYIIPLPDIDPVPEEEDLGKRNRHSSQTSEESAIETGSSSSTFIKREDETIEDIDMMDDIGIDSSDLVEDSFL
Sequence of PDGFRB (P09619 33-1106): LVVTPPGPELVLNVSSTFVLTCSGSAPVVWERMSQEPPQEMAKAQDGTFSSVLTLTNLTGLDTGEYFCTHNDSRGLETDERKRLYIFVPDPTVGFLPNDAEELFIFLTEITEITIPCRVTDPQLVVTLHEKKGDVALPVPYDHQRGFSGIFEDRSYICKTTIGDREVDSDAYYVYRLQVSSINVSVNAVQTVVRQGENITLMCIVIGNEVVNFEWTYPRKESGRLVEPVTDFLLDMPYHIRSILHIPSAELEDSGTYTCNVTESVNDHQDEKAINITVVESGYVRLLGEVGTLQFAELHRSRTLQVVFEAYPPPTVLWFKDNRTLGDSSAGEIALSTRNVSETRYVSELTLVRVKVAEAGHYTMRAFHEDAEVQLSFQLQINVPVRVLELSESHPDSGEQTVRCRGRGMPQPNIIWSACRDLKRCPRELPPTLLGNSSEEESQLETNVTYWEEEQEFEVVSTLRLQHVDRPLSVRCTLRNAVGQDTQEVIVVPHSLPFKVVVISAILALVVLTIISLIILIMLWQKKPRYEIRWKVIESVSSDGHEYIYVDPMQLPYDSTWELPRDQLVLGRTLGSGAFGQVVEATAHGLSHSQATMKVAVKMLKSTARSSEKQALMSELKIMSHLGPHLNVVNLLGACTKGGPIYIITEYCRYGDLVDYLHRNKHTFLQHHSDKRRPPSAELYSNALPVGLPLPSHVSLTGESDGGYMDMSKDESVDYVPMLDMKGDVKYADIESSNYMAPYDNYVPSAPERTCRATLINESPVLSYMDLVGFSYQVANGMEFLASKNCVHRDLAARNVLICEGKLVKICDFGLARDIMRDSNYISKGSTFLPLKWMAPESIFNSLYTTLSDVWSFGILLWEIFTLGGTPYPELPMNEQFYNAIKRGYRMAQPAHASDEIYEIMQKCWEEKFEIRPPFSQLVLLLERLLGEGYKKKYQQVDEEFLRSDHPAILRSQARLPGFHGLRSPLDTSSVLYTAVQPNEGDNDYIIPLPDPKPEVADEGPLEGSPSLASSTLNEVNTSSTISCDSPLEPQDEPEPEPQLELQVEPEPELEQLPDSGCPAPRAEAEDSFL

CCN(CC)CCNC(=O)c1c(C)[nH]c(/C=C2\C(=O)Nc3ccc(F)cc32)c1C [sunitinib]
IC50 (GBM cell lines; read-out: Median IC50 in GBM cell lines): 5.4 µM | IC50 (GBM cell lines; read-out: Range of IC50 in GBM cell lines): 3 to 8.5 µM | Number of significantly downregulated phosphopeptides [1]: 23 | Number of significantly upregulated phosphopeptides [1]: 108 | Kinase activity of PDGFRA (INKA), sunitinib-treated versus control (PDGFRA): low and not significantly different between the groups | Kinase activity of PDGFRB (INKA), sunitinib-treated versus control (PDGFRB): low and not significantly different between the groups | Moderately significant enriched signatures (PTM-SEA) (PTM signatures): Two moderately significant NetPath derived signatures | Strongly significantly enriched phosphosite signatures (PTM-SEA) (PTM signatures): three strongly significantly enriched phosphosite signatures | Perioperative complications of tumor resection after preoperative treatment [2]: without perioperative complications | Relation between sunitinib tumor accumulation and use of dexamethasone and anticonvulsants [3]: No relation | IC50 (398 cancer cell lines): 11.6 µM | Tumor response and clinical benefit (recurrent GBM): no tumor response nor clinical benefit | Kp (clinical): 10 | concentration at 11 days (clinical): 111 nM | concentration at 12 days (clinical): 255 nM | concentration at 13 days (clinical): 479 nM | concentration at 14 days (clinical): 105 nM | concentration at 18 days (clinical): 194 nM
